One assay deals with A375 cells. As to the kind of experiment: Assay 1: A375 cells treated with S1152, S1008 and compound, immunofluorescence (sc-365823) signal. It counts as cell-based. The settings on record: 1 μM S1152 + 0.5 μM S1008, one day. Here is the method: One thousand four hundred A375 cells were seeded in each well of a 384 well microplate. One day later they were treated with 1 μM S1152 (Selleckchem) in dimethyl sulfoxide, 0.5 μM S1008 (Selleckchem) and dose ranges of invention compounds for one day in Dulbecco's Modified Eagle's Medium supplemented with 10% fetal calf serum and 2 mM (2S)-2-amino-4-carbamoylbutanoic acid. Wells were incubated with 4% polyoxymethylene (Sigma Aldrich 158127) at ambient temperature. […] After one minute phosphate-buffered saline was replaced with 0.2% polyethylene glycol octylphenyl ether in phosphate-buffered saline. […] 1% aminoethanoic acid in phosphate-buffered saline was added for ten minutes at ambient temperature. […] After one hour at ambient temperature in the dark, signal in wells was measured with a Acumen Cellista. 3,8-Diamino-5-[3-(diethylmethylammonio)propyl]-6-phenylphenanthridinium diiodide-positive objects were defined in FL3 (565-600 nm) with a perimeter between 50-800 μm and a total intensity of 10000-1000000 FLU. Signal in FL2 (500-530 nm) was measured in defined objects. A normalized ratio of total In FL2 over total In FL3 staining was log transformed. A non-linear regression (variable slope, 4 parameters) was used to calculate EC50 values using GraphPad Prism (Version 7.0d).
In an alternative procedure, assay 1 has been affected by changing the counteratain. […] Cells were incubated with 0.5 μg/ml 2-(4-Amidinophenyl)-6-indolecarbamidine dihydrochloride, 4′,6-Diamidino-2-phenylindole dihydrochloride (Sigma D9542) in phosphate-buffered saline for at least 30 minutes at ambient temperature in the dark. A Celigo Imager (Nexcelom) was used to acquire images in the blue and green channel. The blue channel was used as a mask to define the area for the green signal. The average integrated intensity of the green signal was normalized and a non-linear regression (variable slope, 4 parameter) was used to calculate the EC50 values using GraphPad Prism (Version 8.4)

The subject of another assay is OPM-2. The assay can be described thus: Assay 2: multiple myeloma cellular efficacy, PrestoBlue cell proliferation/survival. It counts as cell-based. The settings on record: Homo sapiens, 96 h, OPM-2 cells, 4 days. On the procedure: Multiple Myeloma Cellular Efficacy:
10000 OPM-2 (ACC50; DSMZ) were plated into wells of a 384 well plate (Greiner 781090). Cells were treated for 4 days with a dose range of compound or vehicle. At the end of the experiment cells were stained directly with PrestoBlue (ThermoFisher Scietific; A13262) for 2 hours at 37° C. in a humidified incubator according to manufactor's instruction. To assess the relative cell number the PrestoBlue signal was measured using either a TecanM1000Pro reader or a Tecan Sparks reader following the manufactor's instructions. Background (no cells) values were subtracted and set in relation to the vehicle control. To assess the EC50 of each compound the relative fluorescence value was plotted against the compound concentration after log transformation. Data were fitted in a nonlinear manner with a variable slope (four parameters) using graphpad prism software. Cellular efficacy of compounds was evaluated in the multiple myeloma cell line OPM-2 using the cell proliferation/survival assay PrestoBlue. EC50 values are classified as indicated below.

Each structure is given as a SMILES string. A value given as a limit tells only on which side of the number the result lay.

For orientation: EC50 means the concentration needed to bring the measured effect to its halfway point. For `CC(=O)N1C[C@H](c2nc(Nc3cccc(F)c3)cc(-c3cccnc3)n2)CC[C@H]1C` [Compound 00015, (+/+)-trans-1-(5-(4-((3-fluorophenyl)amino)-6-(pyridin-3-yl)pyrimidin-2-yl)-2-methylpiperidin-1-yl)ethan-1-one], in the assay with A375 cells (Homo sapiens, A-375, 24 h), the EC50 was more than 10 µM. Regarding `COc1cncc(-c2cc(Nc3cncc(C)c3)nc([C@H]3CC[C@H](C)N(C(C)=O)C3)n2)c1` [Compound 00133, 1-((2S,5S)-5-(4-(5-methoxypyridin-3-yl)-6-((5-methylpyridin-3-yl)amino)pyrimidin-2-yl)-2-methylpiperidin-1-yl)ethan-1-one], the EC50 in the assay with A375 cells (Homo sapiens, A-375, 24 h) was more than 10 µM. As to `CC(=O)N1C[C@H](c2nc(Nc3ccc(O)cc3)cc(-c3cccnc3)n2)CC[C@@H]1C` [Compound 00071, 1-((2S,5R)-5-(4-((4-hydroxyphenyl)amino)-6-(pyridin-3-yl)pyrimidin-2-yl)-2-methylpiperidin-1-yl)ethan-1-one], in the assay with A375 cells, the concentration for a half-maximal effect (EC50) lay within 0.2 to 1 µM. For `CC[C@H]1CC[C@@H](c2nc(Nc3cccc(F)c3)cc(-c3cccnc3)n2)CN1C(C)=O` (racemic) [Compound 00020, (+/−)-c/s-1-(2-ethyl-5-(4-((3-fluorophenyl)amino)-6-(pyridin-3-yl)pyrimidin-2-yl)piperidin-1-yl)ethan-1-one], the EC50 in the assay on A375 cells (Homo sapiens, A-375, 24 h) fell in the range of 1 to 10 µM. For the molecule `CC[C@H]1CC[C@@H](c2nc(Nc3cccc(C)c3)cc(-c3cccnc3)n2)CN1C(C)=O` (racemic) [Compound 00018, (+/−)-cis-1-(2-ethyl-5-(4-(pyridin-3-yl)-6-(m-tolylamino)pyrimidin-2-yl)piperidin-1-yl)ethan-1-one], the EC50 in the assay on A375 cells (Homo sapiens, A-375, 24 h) is 1 to 10 µM. For `CC(=O)N1C[C@H](c2nc(Nc3cncc(C(F)F)c3)cc(-c3cnccn3)n2)CC[C@@H]1C` [Compound 00129, 1-((2S,5R)-5-(4-((5-(difluoromethyl)pyridin-3-yl)amino)-6-(pyrazin-2-yl)pyrimidin-2-yl)-2-methylpiperidin-1-yl)ethan-1-one], the EC50 with A375 cells was less than 0.2 µM.

In the case of `CC(=O)N1C[C@H](c2nc(Nc3ccnc(C)c3)cc(-c3cncc(N4CC(C(N)=O)C4)c3)n2)CC[C@@H]1C` [Compound 00114, 1-(5-(2-((3R,6S)-1-acetyl-6-methylpiperidin-3-yl)-6-((2-methylpyridin-4-yl)amino)pyrimidin-4-yl)pyridin-3-yl)azetidine-3-carboxamide], the EC50 in the assay with A375 cells was more than 10 µM. Consider `COc1cncc(-c2cc(Nc3cccc(F)c3)nc([C@H]3CC[C@@H](C)N(C(C)=O)C3)n2)c1` [Compound 00003], for which the EC50 in the assay on OPM-2 was more than 10 µM. In the case of `CC(=O)N1C[C@H](c2nc(Nc3cccc(C)c3)cc(-c3cccnc3)n2)CC[C@@H]1C(F)(F)F` (racemic) [Compound 00022, (+/−)-c/s-1-(5-(4-(pyridin-3-yl)-6-(m-tolylamino)pyrimidin-2-yl)-2-(trifluoromethyl)piperidin-1-yl)ethan-1-one], the EC50 in the assay with A375 cells was 0.2 to 1 µM. On the same count and under the same terms, for `CC(=O)N1C[C@H](c2nc(Nc3ccc4nncnc4c3)cc(-c3cccnc3)n2)CC[C@@H]1C` [Compound 00122, 1-((2S,5R)-5-(4-(benzo[e][1,2,4]triazin-6-ylamino)-6-(pyridin-3-yl)pyrimidin-2-yl)-2-methylpiperidin-1-yl)ethan-1-one] the value was 0.2 to 1 µM; for `CC(=O)N1C[C@H](c2nc(Nc3ccnc(C)c3)cc(-c3cncc(C4COC4)c3)n2)CC[C@@H]1C` [Compound 00127, 1-((2S,5R)-2-methyl-5-(4-((2-methylpyridin-4-yl)amino)-6-(5-(oxetan-3-yl)pyridin-3-yl)pyrimidin-2-yl)piperidin-1-yl)ethan-1-one], less than 0.2 µM. Turning to `CC(=O)N1C[C@H](c2nc(Nc3cccc(F)c3)cc(-c3cccnc3)n2)CC[C@@H]1C(F)F` (racemic) [Compound 00025, (+/−)-c/s-1-(2-(difluoromethyl)-5-(4-((3-fluorophenyl)amino)-6-(pyridin-3-yl)pyrimidin-2-yl)piperidin-1-yl)ethan-1-one], the EC50 in the assay with A375 cells (Homo sapiens, A-375, 24 h) was 1 to 10 µM. For `CC(=O)N1C[C@H](c2nc(Nc3ccnc(F)c3)cc(-c3cncc(N4CCCC4=O)c3)n2)CC[C@@H]1C` [Compound 00106, 1-(5-(2-((3R,6S)-1-acetyl-6-methylpiperidin-3-yl)-6-((2-fluoropyridin-4-yl)amino)pyrimidin-4-yl)pyridin-3-yl)pyrrolidin-2-one], the EC50 in the assay with A375 cells is less than 0.2 µM.

Turning to `CC(=O)N1C[C@H](c2nc(Nc3ccc4c(=O)[nH]ccc4c3)cc(-c3cccnc3)n2)CC[C@@H]1C` [Compound 00035, 6-((2-((3R,6S)-1-acetyl-6-methylpiperidin-3-yl)-6-(pyridin-3-yl)pyrimidin-4-yl)amino)isoquinolin-1(2H)-one], the EC50 with A375 cells is less than 0.2 µM. Take `CC(=O)N1C[C@H](c2nc(Nc3cccc(F)c3)cc(-c3cncc(O)c3)n2)CC[C@@H]1C` (stereo in doubt) [Compound 00005]: the EC50 in the assay on A375 cells was less than 0.2 µM. On to `CC(=O)N1C[C@H](c2nc(Nc3cccc(F)c3)cc(-c3cccnc3)n2)CC[C@@H]1C(F)(F)F` (racemic) [Compound 00023, (+/−)-c/s-1-(5-(4-((3-fluorophenyl)amino)-6-(pyridin-3-yl)pyrimidin-2-yl)-2-(trifluoromethyl)piperidin-1-yl)ethan-1-one], for which the EC50 with A375 cells lay within 0.2 to 1 µM. Take `CC(=O)N1C[C@H](c2nc(Nc3cncc(C)c3)cc(-c3cncc(C4COC4)c3)n2)CC[C@@H]1C` (racemic) [Compound 00100, (+/−)-c/s-1-(2-methyl-5-(4-((5-methylpyridin-3-yl)amino)-6-(5-(oxetan-3-yl)pyridin-3-yl)pyrimidin-2-yl)piperidin-1-yl)ethan-1-one]: the EC50 with A375 cells fell in the range of 0.2 to 1 µM.

For the molecule `CC(=O)N1C[C@H](c2nc(Nc3cccnc3)cc(-c3cccnc3)n2)CC[C@@H]1C` (racemic) [Compound 00102, (+/−)-cis-1-(2-methyl-5-(4-(pyridin-3-yl)-6-(pyridin-3-ylamino)pyrimidin-2-yl)piperidin-1-yl)ethan-1-one], in the assay on A375 cells, the EC50 is 0.2 to 1 µM. With `CC(=O)N1C[C@H](c2nc(Nc3ccc4cn[nH]c4c3)cc(-c3cccnc3)n2)CC[C@@H]1C` [Compound 00029, 1-((2S,5R)-5-(4-((1H-indazol-6-yl)amino)-6-(pyridin-3-yl)pyrimidin-2-yl)-2-methylpiperidin-1-yl)ethan-1-one], the EC50 in the assay on A375 cells is 0.2 to 1 µM. In the case of `CC(=O)N1C[C@H](c2nc(Nc3ccc4nccnc4c3)cc(-c3cccnc3)n2)CC[C@@H]1C` [Compound 00120, 1-((2S,5R)-2-methyl-5-(4-(pyridin-3-yl)-6-(quinoxalin-6-ylamino)pyrimidin-2-yl)piperidin-1-yl)ethan-1-one], the EC50 in the assay with A375 cells was less than 0.2 µM.

`CC(=O)N1C[C@H](c2nc(Nc3cccc(O)c3)cc(-c3cccnc3)n2)CC[C@@H]1C` [Compound 00075, 1-((2S,5R)-5-(4-((3-hydroxyphenyl)amino)-6-(pyridin-3-yl)pyrimidin-2-yl)-2-methylpiperidin-1-yl)ethan-1-one]: in the assay on A375 cells, the EC50 was less than 0.2 µM. Regarding `COc1cc(F)cc(Nc2cc(-c3cccnc3)nc([C@@H]3CC[C@H](C)N(C(C)=O)C3)n2)c1` [Compound 00031, 1-((2S,5R)-5-(4-((3-fluoro-5-methoxyphenyl)amino)-6-(pyridin-3-yl)pyrimidin-2-yl)-2-methylpiperidin-1-yl)ethan-1-one], in the assay with A375 cells, the EC50 is less than 0.2 µM. Regarding `CC(=O)N1C[C@H](c2nc(Nc3ccnc(C)c3)cc(-c3cncc(N4CCCC4=O)c3)n2)CC[C@@H]1C` [Compound 00108, 1-(5-(2-((3R,6S)-1-acetyl-6-methylpiperidin-3-yl)-6-((2-methylpyridin-4-yl)amino)pyrimidin-4-yl)pyridin-3-yl)pyrrolidin-2-one], the 50% effective concentration (EC50) with A375 cells fell in the range of 0.2 to 1 µM. Consider `CC(=O)N1C[C@H](c2nc(Nc3cncc(C)c3)cc(-c3cncnc3)n2)CC[C@@H]1C` (racemic) [Compound 00097, (+/−)-c/s-1-(2-methyl-5-(6-((5-methylpyridin-3-yl)amino)-[4,5′-bipyrimidin]-2-yl)piperidin-1-yl)ethan-1-one], for which the half-maximal effective concentration (EC50) in the assay with A375 cells (Homo sapiens, A-375, 24 h) was in the range of 1 to 10 µM. In the case of `CC(=O)N1C[C@H](c2nc(Nc3cccc(F)c3)cc(-c3cccnc3)n2)CC[C@H]1C(F)F` (racemic) [Compound 00026, (+/−)-frans-1-(2-(difluoromethyl)-5-(4-((3-fluorophenyl)amino)-6-(pyridin-3-yl)pyrimidin-2-yl)piperidin-1-yl)ethan-1-one], the EC50 in the assay on A375 cells (Homo sapiens, A-375, 24 h) was more than 10 µM.
